Data published in patent US7759101B2, “Ginsenoside glycosidases hydrolyzing ginsenoside sugar moieties and uses thereof” (priority 2000, dated 2010).

Legend:
[1] = system: ginsenoside glycosidase I from ginseng plants; test: Hydrolysis of ginsenosides with fraction 52 (ginsenoside glycosidase I) from ginseng plant; assay type: biochemical; settings: Fraction 52; substrate 0.5%; 50° C., pH 5.0, 18 hours
Method: 200 g of fresh ginseng root was cut into pieces and added to 600 ml of 0.02 M acetate buffer pH 5. Supernatant was obtained by filtration after the mixture stand at 40° C. for 2 hours. To the supernatant (NH4)2SO4 was added gradually until 70% saturation and the mixture stand overnight at 4° C. Then protein pellets were collected by centrifugation and redissolved in 15 ml of distilled water. The solution was dialyzed against 0.02 M Tris-HCl pH 7.4. Insolubles were removed by centrifugation and the volume of the supernatant was adjusted to 20 ml.
5 ml of the enzyme solution was subjected to a DEAE-Cellulose DE-25 column (Whatman, 1.4×6.7 cm). The column was eluted with a KCl gradient (0.06, 0.12, 0.18 and 0.24 M) in 0.02 M Tris-HCl pH 7.4. After elution, each fraction was tested for the activity of hydrolyzing ginsenosides. […] Fraction 52 can also hydrolyze the glucosidic bond at the twentieth carbon atom of Rb and Rc to give ginsenoside F2.

[2] = system: Almond cellulose β-glucosidase(EC 3.2.1.21); test: Comparison: hydrolysis of ginsenosides with almond cellulose β-glucosidase; assay type: biochemical; settings: substrate 0.5%, pH 5.0, 30° C., 18 hours
Description: (§1) To observe the differences between the ginsenoside glycosidases of the invention and known exo-cellulases, the ginsenoside glycosidases of the invention were compared with cellulose β-glucosidase (E.C. 3.2.1.21) in two reactions with 0.5% ginsenosides Rb1 or Rd as substrate.

[3] = system: Cellulose β-glucosidase of Clostridium and Bacillus (EC 3.2.1.21); test: Comparison: hydrolysis of ginsenosides with cellulose β-glucosidase of Clostridium and Bacillus; assay type: biochemical, Clostridium thermocopiriae and Bacillus sp. AX; settings: substrate 0.5%, pH 5.0, 30° C., 18 hours
Description: as §1
Cellulose β-glucosidases (EC 3.2.1.21) from Clostridium thermocopiriae and Bacillus sp. AX cannot hydrolyze any glycosides of ginsenosides. The cellulose β-glucosidase from almond slightly hydrolyzes the C-20 glycoside of Rb1, Rb2 and Rc to give ginsenoside Rd, but it cannot hydrolyze the glucoside at C-3. Ginsenoside glycosidase II is similar to cellulose β-glucosidase from almond, but it only slightly hydrolyzes Rd. The properties of ginsenoside glycosidase III are totally different from those of cellulose β-glucosidases.

[4] = system: ginsenoside glycosidases from A. oryzae; test: Hydrolysis of ginsenosides with crude ginsenoside glycosidases from A. oryzae, TLC; assay type: biochemical, Aspergillus oryzae; settings: pH 5.0, 30° C., 18 hours
Method: Aspergillus oryzae FFCCDL-39 g (available from Food Fermentation Culture Collection of Dalian Institute of Light Industry) was cultured with stirring in a medium containing 1% ginseng extracts and 3% wheat bran extracts at 30° C. for 64 hours. Cells were removed by centrifugation, after which (NH4)2SO4 powder was added to 2000 ml of the cell-free supernatant with stirring to 65% saturation. The solution was stored overnight at 4° C. and precipitated proteins were collected by centrifugation, resuspended in 80 ml of distilled water and dialyzed against 0.01M acetate buffer pH 5. Insolubles were removed by centrifugation, and the solution was adjusted to 200 ml with 0.01 M acetate buffer pH 5. The crude enzyme solution may be used to hydrolyze ginsenosides or to purify the enzymes.
Each 100 mg of ginsenosides Rb1, Rb2, Rc Re and Rd and each 10 mg of ginsenoside Rg3 and Rg2 were dissolved in separate tubes containing 10 ml of 0.01M acetate buffer pH 5. 10 ml of the crude enzyme solution obtained as above was added to each tube and allowed to react at 30° C. for 18 hours. Then 10 ml of n-butanol was added to stop the reactions. The products were measured by thin layer chromatography (TLC) (Silica gel 60-F254, Merck; chloroform:methanol:water 70:30:5). […]

[5] = system: ginsenoside glycosidase II; test: Hydrolysis of ginsenosides with ginsenoside glycosidase II (Fraction 54); assay type: biochemical, Aspergillus niger; settings: substrate 0.5%, pH 5.0, 30° C., 18 hours
Method: (§2) 10 ml of the enzyme solution obtained in 1.1 was subjected to a DEAE-Cellulose DE-52 column (Pharamcia, 1.5×6.7 cm) to absorb the enzyme protein. The column was then eluted with a NaCl gradient (0.06, 0.12, 0.18, 0.24, 0.3, 0.4, 0.5 and 0.6M).
Fraction 54 which was eluted with 0.18 M NaCl from the DEAE-Cellulose column was lyophilized and appeared as a single dot when running on a SDS-polyacrylamide gel with a molecular weight of 90,000 Daltons. Therefore, it represented a purified enzyme and designated as ginsenoside glycosidase II.
as §1

[6] = system: Cellobiose-producing enzyme from Clostridium; test: Comparison: hydrolysis of ginsenosides with cellobiose-producing enzyme; assay type: biochemical, Clostridium thermocopiriae; settings: substrate 0.5%, pH 5.0, 30° C., 18 hours
Description: as §1
An exo-cellulase from Clostridium thermocopiriae (cellobiose-producing enzyme) cleaves cellodextrin to give cellobiose, but cannot hydrolyze diglucosidic bond at C-3 of ginsenoside Rd. So it is completely different from ginsenoside glycosidase III. Therefore, the ginsenoside glycosidases of the invention are enzymes different from known cellulose β-glucosidases and cellobiose-producing enzymes.

[7] = system: ginsenoside glycosidases from wheat bran; test: Hydrolysis of ginsenosides with ginsenoside glycosidases from wheat bran; assay type: biochemical; settings: 10 ml of 1% ginsenoside substrate, 40° C., 20 hours
Method: 500 g of wheat bran was added to 2500 ml of 0.02 M acetate buffer pH 5 and extracted at 40° C. for 2 hours. 2000 ml of supernatant were obtained by filtration to which (NH4)2SO4 was added gradually with stirring until 70% saturation. The mixture stand at 4° C. overnight. Protein pellets were collected by centrifugation and redissolved in 80 ml of distilled water and dialyzed against 0.02 M acetate buffer pH 5.0. Insolubles were removed by centrifugation and the supernatant was adjusted to a volume of 200 ml to obtain the crude enzyme solution.
10 ml of the enzyme solution was allowed to react with 10 ml of 1% ginsenoside substrate at 40° C. for 20 hours.

[8] = system: ginsenoside glycosidase I; test: Hydrolysis of ginsenosides with Fraction 36 (ginsenoside glycosidase I); assay type: biochemical, Aspergillus niger; settings: pH 5.0, 30° C.
Method: as §2
Fractions 36 and 54 from the DEAE-Cellulose column appeared as one dot on a SDS-polyacrylamide gel, representing the purified enzymes.
Fraction 36 which was eluted with 0.12 M NaCl from the DEAE-Cellulose column was lyophilized and appeared as a single dot with a molecular weight of 51,000 Daltons when running on a SDS-polyacrylamide gel.
as §1

[9] = Fraction 36, substrates Rb1, Rb2, Rc, Rd 0.5%, Rg3, F2, Rh2, C—K, Rg2 0.05%
[10] = Table 8, ginsenoside glycosidase I, substrate 0.5%, 18 hours

| Structure (SMILES) | Percentage of F2 in the reaction product [1] [%] | Percentage of Rd in the reaction product [1] [%] | Percentage of Rb1 in the reaction product [2] [%] | Percentage of Rb1 in the reaction product [3] [%] | Percentage of C—K in the reaction product [4] [%] | Percentage of F2 in the reaction product [4] [%] | Percentage of Rd in the reaction product [4] [%] | Percentage of aglycone in the reaction product [4] [%] | Percentage of Rd in the reaction product [5] [%] | Percentage of Rg3 in the reaction product [5] [%] | Percentage of Rb1 in the reaction product [6] [%] | Percentage of F2 in the reaction product [7] [%] | Percentage of Rd in the reaction product [7] [%] | Percentage of C—K in the reaction product [8, 9] [%] | Percentage of F2 in the reaction product [8, 9] [%] | Percentage of aglycone in the reaction product [8, 9] [%] | Percentage of C—K in the reaction product [8, 10] [%] | Percentage of F2 in the reaction product [8, 10] [%] | Percentage of aglycone in the reaction product [8, 10] [%] | further results |
| --- | --- | --- | --- | --- | --- | --- | --- | --- | --- | --- | --- | --- | --- | --- | --- | --- | --- | --- | --- | --- |
| CC(C)=CCC[C@](C)(O[C@@H]1O[C@H](CO)[C@@H](O)[C@H](O)[C@H]1O)[C@H]1CC[C@]2(C)[C@@H]1[C@H](O)C[C@@H]1[C@@]3(C)CC[C@H](O[C@@H]4O[C@H](CO)[C@@H](O)[C@H](O)[C@H]4O[C@@H]4O[C@H](CO)[C@@H](O)[C@H](O)[C@H]4O)C(C)(C)[C@@H]3CC[C@]12C [Rd, ginsenoside Rd] | 40 | 60 | 100 | 100 | 29 | 40 | 25 | 5 | 90 | 5 | 100 | 40 | 60 | 25 | 50 | 5 | 25 | 50 | 5 | Percentage of Rg3 in the reaction product [4]: 1% |
| CC(C)=CCC[C@](C)(O[C@@H]1O[C@H](CO[C@@H]2O[C@H](CO)[C@@H](O)[C@H](O)[C@H]2O)[C@@H](O)[C@H](O)[C@H]1O)[C@H]1CC[C@]2(C)[C@@H]1[C@H](O)C[C@@H]1[C@@]3(C)CC[C@H](O[C@@H]4O[C@H](CO)[C@@H](O)[C@H](O)[C@H]4O[C@@H]4O[C@H](CO)[C@@H](O)[C@H](O)[C@H]4O)C(C)(C)[C@@H]3CC[C@]12C [Rb1, ginsenoside Rb1] | 70 | 30 | 80 | 100 | 45 | 38 | 20 | 2 | 90 | 5 | 100 | 55 | 40 | 49 | 38 | 2 | 49 | 38 | 2 | Percentage of Rd in the reaction product [2]: 20%; Percentage of Rd in the reaction product [8, 9]: 8%; Percentage of Rh2 in the reaction product [8, 9]: 1%; Percentage of Rd in the reaction product [8, 10]: 8%; Percentage of Rh2 in the reaction product [8, 10]: 1% |
